Measured values published in US4563527A, “Amidine compounds” (Torii & Co., Ltd., priority 1984, dated 1986).

How the values were obtained:
C1r = target: T1, C1r (Homo sapiens, UniProt P00736); experiment: biochemical; details: molar concentration inhibiting 50% of AAME hydrolysis; read-out: ID50 C1r (Anti-C1 activity)
T1 sequence (P00736 464-705 limits assumed): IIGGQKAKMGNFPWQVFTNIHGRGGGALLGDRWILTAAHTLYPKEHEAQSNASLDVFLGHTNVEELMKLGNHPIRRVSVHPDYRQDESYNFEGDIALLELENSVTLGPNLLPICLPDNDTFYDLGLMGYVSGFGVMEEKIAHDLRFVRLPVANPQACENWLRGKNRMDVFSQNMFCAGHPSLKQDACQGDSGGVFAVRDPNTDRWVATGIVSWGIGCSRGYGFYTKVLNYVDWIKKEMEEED
T1 sequence (P00736 18-463 partner limits assumed): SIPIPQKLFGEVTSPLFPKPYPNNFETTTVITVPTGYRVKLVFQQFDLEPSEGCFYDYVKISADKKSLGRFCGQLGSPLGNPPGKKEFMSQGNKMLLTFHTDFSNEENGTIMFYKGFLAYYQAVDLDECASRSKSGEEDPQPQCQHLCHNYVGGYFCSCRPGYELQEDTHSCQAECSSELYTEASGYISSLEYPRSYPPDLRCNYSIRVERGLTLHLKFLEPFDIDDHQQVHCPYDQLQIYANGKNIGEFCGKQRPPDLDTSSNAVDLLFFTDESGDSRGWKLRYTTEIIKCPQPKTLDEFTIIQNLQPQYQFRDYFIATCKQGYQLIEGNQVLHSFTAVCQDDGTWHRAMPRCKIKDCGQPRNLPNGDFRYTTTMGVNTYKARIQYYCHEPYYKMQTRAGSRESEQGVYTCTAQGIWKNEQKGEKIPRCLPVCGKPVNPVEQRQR

Thrombin = Thrombin (Homo sapiens, UniProt P00734); experiment: biochemical
Forssman shock = experiment: Forssman shock; format: in vivo, guinea pig; details: test compound 3 mg/kg before intravenous hemolysin; individual male guinea pigs; control died at 278, 318, 296 sec.
Text: Quite different from other animals, guinea pig has on the surface of its organs a specific antigen called Forssman antigen which specifically reacts with the antibody of sheep erythrocyte. Forssman shock is based on the above principle and is a shock caused by the administration of antibody of sheep erythrocyte to a guinea pig. The Forssman shock was investigated in detail by many researches and it was definitely shown that this shock is a model case where the complement plays the principal part and that the shock is associated with a classical pathway in which the complement system is activated progressively starting from C1. Since the participation of complement in autoimmune diseases has been established, the Forssman shock can be said to be useful means for testing a drug for autoimmune diseases. A drug effective for the treatment of Forssman shock is useful as a drug of autoimmune diseases. [Anti-trypsin, anti-plasmin, anti-kallikrein and anti-thrombin activities]
The experiment was performed according to the method of I. G. Offerness et al. [Biochem. Pharmacol., 27 (14), 1873-1878 (1978)]. Male Hartlay guinea pig of about 300 g in body weight was used. Each guinea pig of the control group was administered intravenously with hemolysin (minimum dose to cause the shock) (commercial hemolysin, 5,000 U as assayed by the method of Ogata) and the time elapsed until death was observed. […]

complement = experiment: Inhibition of complement mediated hemolysis; format: cell-based
Summary of the method: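 Anti-C1 esterase (C1r, C1s) activity was measured as suppression of hemolysis when a known amount of complement, mixed with inhibitor, is added to antibody-sensitized erythrocytes. Method of Okamura et al.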

C1s = target: T2, C1s (Homo sapiens, UniProt P09871); experiment: Anti-C1s activity (hydrolysis of ATEE); format: biochemical; details: molar concentration inhibiting 50% of ATEE hydrolysis; read-out: ID50 C1s (Anti-C1 activity)
T2 sequence (P09871 438-688 limits assumed): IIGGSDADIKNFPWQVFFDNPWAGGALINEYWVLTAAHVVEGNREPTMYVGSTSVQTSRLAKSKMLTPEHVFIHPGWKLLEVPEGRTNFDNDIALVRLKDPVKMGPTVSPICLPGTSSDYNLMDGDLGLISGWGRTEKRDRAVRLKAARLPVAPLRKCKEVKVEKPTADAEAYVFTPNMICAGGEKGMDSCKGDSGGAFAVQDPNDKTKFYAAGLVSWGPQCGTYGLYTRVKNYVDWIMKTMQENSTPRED
T2 sequence (P09871 16-437 partner limits assumed): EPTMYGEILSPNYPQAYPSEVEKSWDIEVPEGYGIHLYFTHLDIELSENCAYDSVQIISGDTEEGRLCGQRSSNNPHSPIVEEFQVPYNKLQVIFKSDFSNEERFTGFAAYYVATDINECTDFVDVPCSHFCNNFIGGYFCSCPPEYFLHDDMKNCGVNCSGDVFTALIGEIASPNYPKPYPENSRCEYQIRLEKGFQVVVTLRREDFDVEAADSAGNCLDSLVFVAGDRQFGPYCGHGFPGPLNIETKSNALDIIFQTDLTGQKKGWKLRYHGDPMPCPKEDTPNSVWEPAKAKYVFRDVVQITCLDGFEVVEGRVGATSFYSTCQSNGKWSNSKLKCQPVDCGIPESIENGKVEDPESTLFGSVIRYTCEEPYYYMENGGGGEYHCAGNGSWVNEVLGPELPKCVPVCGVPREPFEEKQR
Experimental: The anti-C1 esterase (C1r, C1s) activity was determined according to the method of Okamura et al. [K. Okamura, M. Muramatsu and B. Fujii, Biochem. Biophys. Acta, 295, 252-257 (1973)]. The inhibition of complement mediated hemolysis was determined according to the method of Baker et al. [B. R. Baker and E. H. Erickson, J. Med. Chem. 12, 408-414 (1969)]. The figures in Table 2 have the following meanings:
C1s: Molar concentration of the test compound which inhibits 50% of the ability of C1s to hydrolyse ATEE (acetyltyrosin ethyl ester) (ID50).

Kallikrein = experiment: Anti-kallikrein activity (hydrolysis of TAME); format: biochemical; details: molar concentration inhibiting 50% of TAME hydrolysis; read-out: ID50 kallikrein
Experimental: (§1) The anti-trypsin, anti-plasmin, anti-kallikrein and anti-thrombin activities were determined according to the method of Muramatsu et al. [M. Muramatus, T. Onishi, S. Makino, Y. Hayashi and S. Fujii, J. of Biochem., 58, 214 (1965)]. The data summarized in Table 1 are expressed in terms of molar concentration (ID50) of the test compound which inhibits 50% of the activity of each enzyme to hydrolyze TAME (tosylalginine methyl ester). The compound No. corresponds to the compound number shown in Examples.

[1] = Median lethal dose (LD50); details: in vivo, mouse
Plasmin = Plasmin (Homo sapiens, UniProt P00747); experiment: Anti-plasmin activity (hydrolysis of TAME); format: biochemical
Chain of Plasmin (P00747 581-810 limits assumed, species assumed): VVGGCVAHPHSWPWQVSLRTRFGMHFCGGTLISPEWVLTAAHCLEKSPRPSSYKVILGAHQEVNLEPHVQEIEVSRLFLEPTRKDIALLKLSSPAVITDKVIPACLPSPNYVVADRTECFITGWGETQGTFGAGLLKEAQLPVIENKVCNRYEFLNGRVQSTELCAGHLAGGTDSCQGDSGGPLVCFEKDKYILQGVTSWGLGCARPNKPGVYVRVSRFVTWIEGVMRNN
Chain of Plasmin (P00747 97-580 partner limits assumed, species assumed): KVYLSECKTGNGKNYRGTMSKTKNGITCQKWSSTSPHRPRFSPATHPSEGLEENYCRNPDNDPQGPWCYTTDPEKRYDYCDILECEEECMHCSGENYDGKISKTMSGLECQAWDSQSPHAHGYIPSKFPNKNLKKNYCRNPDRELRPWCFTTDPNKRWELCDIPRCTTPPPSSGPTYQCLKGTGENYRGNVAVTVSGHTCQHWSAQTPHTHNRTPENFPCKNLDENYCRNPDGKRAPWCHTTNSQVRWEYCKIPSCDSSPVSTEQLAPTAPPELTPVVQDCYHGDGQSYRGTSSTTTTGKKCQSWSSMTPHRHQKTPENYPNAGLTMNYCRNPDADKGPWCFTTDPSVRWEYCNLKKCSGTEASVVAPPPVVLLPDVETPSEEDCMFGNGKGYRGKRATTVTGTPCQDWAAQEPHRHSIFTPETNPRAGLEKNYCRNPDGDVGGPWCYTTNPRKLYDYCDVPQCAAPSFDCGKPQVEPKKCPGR
Experimental: The anti-trypsin, anti-plasmin, anti-kallikrein and anti-thrombin activities were determined according to the method of Muramatsu et al. [M. Muramatus, T. Onishi, S. Makino, Y. Hayashi and S. Fujii, J. of Biochem., 58, 214 (1965)]. […] The compound No. corresponds to the compound number shown in Examples.

Trypsin = target: T3, Trypsin (Bos taurus, UniProt P00760); experiment: Anti-trypsin activity (hydrolysis of TAME); format: biochemical
T3 sequence (P00760 24-246): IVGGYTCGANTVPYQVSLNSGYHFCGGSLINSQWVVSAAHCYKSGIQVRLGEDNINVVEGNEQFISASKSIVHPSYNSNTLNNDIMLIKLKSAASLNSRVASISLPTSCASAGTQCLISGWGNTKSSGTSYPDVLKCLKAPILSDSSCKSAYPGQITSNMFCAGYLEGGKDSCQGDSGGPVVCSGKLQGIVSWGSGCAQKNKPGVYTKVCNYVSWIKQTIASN
Experimental: as §1

N=C(N)NCc1ccc(C(=O)Oc2ccc3cc(C(=N)N)ccc3c2)o1 [Compound No. 1, 6-amidino-2-naphthyl 5-guanidinomethyl-furan-2-carboxylate]
IC50 (C1r): 2 µM | inhibition at 10 µM (Thrombin; figure in parentheses, at 1×10^-5 M, TAME, read-out: percentage inhibition of thrombin): 22% | time elapsed until death (survival) in Forssman shock (Forssman shock): Survival | Inhibition of complement mediated hemolysis (%) (complement; 1 × 10^-5): 100% | Inhibition of complement mediated hemolysis (%) (complement; 1 × 10^-6): 99% | Inhibition of complement mediated hemolysis (%) (complement; 1 × 10^-7): 75% | IC50 (C1s): 3 µM | IC50 (Kallikrein): 5 µM | LD50 ([1]; ip, I.P.): 100 mg/kg | LD50 ([1]; po, P.O.): 2000 mg/kg | inhibition at 10 µM (Plasmin; figure in parentheses, at 1×10^-5 M, TAME, read-out: percentage inhibition of plasmin): 15% | inhibition at 10 µM (Trypsin; figure in parentheses, at 1×10^-5 M, TAME, read-out: percentage inhibition of trypsin): 35%

N=C(N)c1ccc2cc(OC(=O)c3ccc(CN)s3)ccc2c1 [Compound No. 31, 6-amidino-2-naphthyl 5-aminomethyl-thiophene-2-carboxylate]
IC50 (C1r): 0.2 µM | IC50 (Thrombin; molar concentration inhibiting 50% of TAME hydrolysis, read-out: ID50 thrombin): 1 µM | time elapsed until death (survival) in Forssman shock (Forssman shock): Survival | Inhibition of complement mediated hemolysis (%) (complement; 1 × 10^-5): 100% | Inhibition of complement mediated hemolysis (%) (complement; 1 × 10^-6): 98% | Inhibition of complement mediated hemolysis (%) (complement; 1 × 10^-7): 97% | IC50 (C1s): 0.3 µM | IC50 (Kallikrein): 0.4 µM | LD50 ([1]; ip, I.P.): 200 mg/kg | LD50 ([1]; po, P.O.): 2500 mg/kg | IC50 (Plasmin; molar concentration inhibiting 50% of TAME hydrolysis, read-out: ID50 plasmin): 0.4 µM | IC50 (Trypsin; molar concentration inhibiting 50% of TAME hydrolysis, read-out: ID50 trypsin): 0.02 µM
